Reference: ChEMBL document CHEMBL6153138, “Discovery of Novel Aromatic Urea-Imidazole Salt Derivatives for Cancer Therapy via Targeting ERK1/2” (J Med Chem, 2025)
Activity calls are given as the source filed them. No cut-off for these calls is given here.

Experiments:
[1] = Toxicity in female BALB/c mouse assessed as effect GLU level in serum at 25 to 50 mg/kg, po qd measured after 18 days by biochemical analysis; type: organism-based; settings: in vivo, 432 h, dose 25-50 mg/kg, time 18 day
[2] = target: Vascular endothelial growth factor receptor 1 (Homo sapiens) (UniProt P17948); assay: Inhibition of human FLT1 at 10000 nM by DiscoverX KINOMEscan assay relative to control
Vascular endothelial growth factor receptor 1 (Homo sapiens), sequence (P17948 whole entry): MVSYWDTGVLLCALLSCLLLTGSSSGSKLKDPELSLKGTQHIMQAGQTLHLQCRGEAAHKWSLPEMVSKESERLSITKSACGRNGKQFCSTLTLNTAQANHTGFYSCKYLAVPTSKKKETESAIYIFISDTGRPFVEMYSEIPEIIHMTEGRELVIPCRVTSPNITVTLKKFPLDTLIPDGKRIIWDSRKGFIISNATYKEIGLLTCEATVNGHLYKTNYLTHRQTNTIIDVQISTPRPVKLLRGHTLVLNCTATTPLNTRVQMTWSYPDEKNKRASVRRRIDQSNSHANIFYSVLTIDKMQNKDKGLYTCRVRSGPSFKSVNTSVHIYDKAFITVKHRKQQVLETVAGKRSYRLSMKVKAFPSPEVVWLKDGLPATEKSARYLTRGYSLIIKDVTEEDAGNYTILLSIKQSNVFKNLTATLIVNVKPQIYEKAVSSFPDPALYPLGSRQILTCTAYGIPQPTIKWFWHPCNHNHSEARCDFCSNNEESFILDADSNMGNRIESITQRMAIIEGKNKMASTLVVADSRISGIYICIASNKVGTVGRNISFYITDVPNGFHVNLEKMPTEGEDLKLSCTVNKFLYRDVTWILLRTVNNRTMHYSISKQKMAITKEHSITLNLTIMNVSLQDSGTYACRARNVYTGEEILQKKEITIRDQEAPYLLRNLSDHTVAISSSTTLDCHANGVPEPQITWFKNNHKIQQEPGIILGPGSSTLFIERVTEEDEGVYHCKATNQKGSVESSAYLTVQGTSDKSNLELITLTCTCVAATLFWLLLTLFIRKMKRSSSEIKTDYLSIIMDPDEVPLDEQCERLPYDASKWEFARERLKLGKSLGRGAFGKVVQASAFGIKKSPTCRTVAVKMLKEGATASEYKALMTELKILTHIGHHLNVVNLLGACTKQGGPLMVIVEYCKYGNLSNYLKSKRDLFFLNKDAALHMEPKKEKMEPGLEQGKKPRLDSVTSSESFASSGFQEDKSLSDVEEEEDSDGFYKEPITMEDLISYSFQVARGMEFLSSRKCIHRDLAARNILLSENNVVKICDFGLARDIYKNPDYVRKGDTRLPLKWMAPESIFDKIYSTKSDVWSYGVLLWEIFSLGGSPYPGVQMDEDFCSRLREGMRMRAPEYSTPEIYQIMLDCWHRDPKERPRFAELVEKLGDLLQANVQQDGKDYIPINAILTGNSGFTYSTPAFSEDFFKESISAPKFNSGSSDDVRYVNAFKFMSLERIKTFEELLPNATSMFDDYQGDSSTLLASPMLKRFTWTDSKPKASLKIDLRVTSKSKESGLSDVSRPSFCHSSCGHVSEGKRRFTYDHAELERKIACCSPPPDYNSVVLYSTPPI

4T1 [3] = assay: Antitumor activity against mouse 4T1 cells implanted in female BALB/c mouse model assessed as reduction in PCNA expression at 50 mg/kg, po in presence of chloroquine by immunohistochemical analysis; type: functional, organism-based
MCF7 [4] = assay: Upregulation of ERK1/2 phosphorylation expression in human MCF7 cells at 2 uM measured after 12 to 24 hrs by Western blot analysis; type: functional, cell-based; settings: time 12-24 hrs
MCF7 [5] = assay: Induction of autophagy in human MCF7 cells harbouring beclin1 knockout assessed as increase in LC3B expression at 1 uM incubated for 48 hrs by Western blot analysis; type: functional, cell-based
4T1-Luc [6] = assay: Anti-metastatic activity in mouse 4T1-Luc cells assessed as reduction in number of tumor metastatic nodules at 25 to 50 mg/kg, po measured after 20 days; type: functional, organism-based; settings: dose 25-50 mg/kg, time 20.0 day
Mitochondrial membrane [7] = assay: Induction of mitochondrial membrane potential loss in human MCF7 cells assessed as reduction in JC-1 aggregates by measuring decrease in red fluorescence at 0.5 uM by flow cytometry analysis (reference value: 24.7%); type: cell membranes; design: scale not given: the % may be the effect or the level left
[8] = target: Mitogen-activated protein kinase 1 (Homo sapiens, UniProt P28482); assay: Inhibition of ERK2 (unknown origin) incubated for 60 mins by luminescence based ADP-Glo kinase assay
Mitogen-activated protein kinase 1, sequence (P28482 whole entry): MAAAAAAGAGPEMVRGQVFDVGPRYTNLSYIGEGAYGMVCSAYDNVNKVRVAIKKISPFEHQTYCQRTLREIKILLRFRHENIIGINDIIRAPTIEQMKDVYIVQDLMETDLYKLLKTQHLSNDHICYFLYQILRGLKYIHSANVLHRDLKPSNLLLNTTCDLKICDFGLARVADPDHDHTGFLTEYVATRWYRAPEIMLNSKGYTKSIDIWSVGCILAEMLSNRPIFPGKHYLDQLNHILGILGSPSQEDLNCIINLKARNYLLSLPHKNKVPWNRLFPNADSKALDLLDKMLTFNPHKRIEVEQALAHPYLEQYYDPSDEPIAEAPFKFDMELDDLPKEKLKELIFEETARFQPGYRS

4T1-Luc [9] = assay: Anti-metastatic activity in mouse 4T1-Luc cells assessed as reduction in enlarged alveolar space at 25 to 50 mg/kg, po measured after 20 days by H and E staining based analysis; type: functional, organism-based; settings: dose 25-50 mg/kg, time 20.0 day
[10] = Toxicity in female BALB/c mouse assessed as change in body weight at 25 to 50 mg/kg, po qd measured after 18 days; type: organism-based; settings: in vivo, 432 h, dose 25-50 mg/kg, time 18 day
MCF7 [11] = assay: Induction of autophagy in human MCF7 cells assessed as increase in Beclin-1 level at 1 uM by Western blot analysis; type: functional, cell-based
MCF7 [12] = assay: Induction of apoptosis in human MCF7 cells assessed as early apoptotic cells at 1 uM incubated for 48 hrs in presence of chloroquine by Annexin V/FITC and PI staining based flow cytometry analysis (reference value: 8.72%); type: functional
[13] = Toxicity in female BALB/c mouse assessed as effect TP level in serum at 25 to 50 mg/kg, po qd measured after 18 days by biochemical analysis; type: organism-based; settings: in vivo, 432 h, dose 25-50 mg/kg, time 18 day
[14] = AUC (0 to t) in Sprague-Dawley rat at 10 mg/kg, po by LC-MS/MS analysis; type: ADME, organism-based; settings: in vivo
Mitochondrial membrane [15] = assay: Induction of mitochondrial membrane potential loss in human MCF7 cells assessed as increase in JC-1 monomers by measuring increase in green fluorescence at 1 uM by flow cytometry analysis (reference value: 38.0%); type: cell membranes
MCF7 [16] = assay: Upregulation of ERK1/2 phosphorylation expression in human MCF7 cells at 2 uM measured after 8 hrs by Western blot analysis; type: functional, cell-based
MCF7 [17] = assay: Induction of autophagy in human MCF7 cells assessed as increase in ATG5 level at 1 uM by Western blot analysis; type: functional, cell-based
MCF7 [18] = assay: Induction of apoptosis in human MCF7 cells assessed as increase in caspase-3 cleavage at 0.5 to 2 uM by Western blot analysis; type: functional, cell-based; settings: dose 0.5-2 µM
MCF7 [19] = assay: Induction of apoptosis in human MCF7 cells assessed as late apoptotic cells at 1 uM incubated for 48 hrs in presence of chloroquine by Annexin V/FITC and PI staining based flow cytometry analysis (reference value: 4.90%); type: functional
[20] = target: Macrophage colony-stimulating factor 1 receptor (Homo sapiens) (UniProt P07333); assay: Inhibition of human FMS at 10000 nM by DiscoverX KINOMEscan assay relative to control
Macrophage colony-stimulating factor 1 receptor (Homo sapiens), sequence (P07333 whole entry): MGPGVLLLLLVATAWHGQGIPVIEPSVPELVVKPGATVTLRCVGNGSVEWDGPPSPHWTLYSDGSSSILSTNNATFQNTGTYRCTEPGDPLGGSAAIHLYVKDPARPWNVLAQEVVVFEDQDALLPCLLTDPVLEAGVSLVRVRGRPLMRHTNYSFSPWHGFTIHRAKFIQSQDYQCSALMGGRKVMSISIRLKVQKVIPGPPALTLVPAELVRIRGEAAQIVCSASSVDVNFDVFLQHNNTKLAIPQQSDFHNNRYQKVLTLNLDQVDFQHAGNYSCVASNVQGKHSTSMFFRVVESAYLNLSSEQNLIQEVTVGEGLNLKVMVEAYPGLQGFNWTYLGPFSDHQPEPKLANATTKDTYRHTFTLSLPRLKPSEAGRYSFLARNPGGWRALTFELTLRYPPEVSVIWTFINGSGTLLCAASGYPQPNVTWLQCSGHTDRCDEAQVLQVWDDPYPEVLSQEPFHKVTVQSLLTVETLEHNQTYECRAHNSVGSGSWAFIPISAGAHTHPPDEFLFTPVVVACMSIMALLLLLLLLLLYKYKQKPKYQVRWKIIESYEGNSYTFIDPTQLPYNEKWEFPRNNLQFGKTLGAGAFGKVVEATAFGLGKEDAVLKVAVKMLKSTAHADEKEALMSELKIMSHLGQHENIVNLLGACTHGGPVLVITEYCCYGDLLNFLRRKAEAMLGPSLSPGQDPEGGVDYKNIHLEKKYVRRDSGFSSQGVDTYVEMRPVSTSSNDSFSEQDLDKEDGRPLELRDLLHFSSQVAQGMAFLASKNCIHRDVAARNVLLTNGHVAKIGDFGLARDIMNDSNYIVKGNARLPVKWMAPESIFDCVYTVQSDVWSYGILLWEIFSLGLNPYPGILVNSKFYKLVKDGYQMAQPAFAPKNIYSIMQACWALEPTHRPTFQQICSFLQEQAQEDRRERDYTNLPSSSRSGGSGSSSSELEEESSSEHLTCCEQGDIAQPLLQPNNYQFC

4T1 [21] = assay: Antitumor activity against mouse 4T1 cells implanted in female BALB/c mouse model assessed as increase in LC3B expression administered as po by immunohistochemical analysis; type: functional, organism-based; settings: dose 25-50 mg/kg
MCF7 [22] = assay: Downregulation of p90RSK phosphorylation expression in human MCF7 cells at 0.5 to 2 uM measured after 30 mins to 4 hrs by Western blot analysis; type: functional, cell-based; settings: dose 0.5-2 µM, time 30-240 min
[23] = target: Vascular endothelial growth factor receptor 3 (Homo sapiens) (UniProt P35916); assay: Inhibition of human FLT4 at 10000 nM by DiscoverX KINOMEscan assay relative to control
Vascular endothelial growth factor receptor 3 (Homo sapiens), sequence (P35916 whole entry): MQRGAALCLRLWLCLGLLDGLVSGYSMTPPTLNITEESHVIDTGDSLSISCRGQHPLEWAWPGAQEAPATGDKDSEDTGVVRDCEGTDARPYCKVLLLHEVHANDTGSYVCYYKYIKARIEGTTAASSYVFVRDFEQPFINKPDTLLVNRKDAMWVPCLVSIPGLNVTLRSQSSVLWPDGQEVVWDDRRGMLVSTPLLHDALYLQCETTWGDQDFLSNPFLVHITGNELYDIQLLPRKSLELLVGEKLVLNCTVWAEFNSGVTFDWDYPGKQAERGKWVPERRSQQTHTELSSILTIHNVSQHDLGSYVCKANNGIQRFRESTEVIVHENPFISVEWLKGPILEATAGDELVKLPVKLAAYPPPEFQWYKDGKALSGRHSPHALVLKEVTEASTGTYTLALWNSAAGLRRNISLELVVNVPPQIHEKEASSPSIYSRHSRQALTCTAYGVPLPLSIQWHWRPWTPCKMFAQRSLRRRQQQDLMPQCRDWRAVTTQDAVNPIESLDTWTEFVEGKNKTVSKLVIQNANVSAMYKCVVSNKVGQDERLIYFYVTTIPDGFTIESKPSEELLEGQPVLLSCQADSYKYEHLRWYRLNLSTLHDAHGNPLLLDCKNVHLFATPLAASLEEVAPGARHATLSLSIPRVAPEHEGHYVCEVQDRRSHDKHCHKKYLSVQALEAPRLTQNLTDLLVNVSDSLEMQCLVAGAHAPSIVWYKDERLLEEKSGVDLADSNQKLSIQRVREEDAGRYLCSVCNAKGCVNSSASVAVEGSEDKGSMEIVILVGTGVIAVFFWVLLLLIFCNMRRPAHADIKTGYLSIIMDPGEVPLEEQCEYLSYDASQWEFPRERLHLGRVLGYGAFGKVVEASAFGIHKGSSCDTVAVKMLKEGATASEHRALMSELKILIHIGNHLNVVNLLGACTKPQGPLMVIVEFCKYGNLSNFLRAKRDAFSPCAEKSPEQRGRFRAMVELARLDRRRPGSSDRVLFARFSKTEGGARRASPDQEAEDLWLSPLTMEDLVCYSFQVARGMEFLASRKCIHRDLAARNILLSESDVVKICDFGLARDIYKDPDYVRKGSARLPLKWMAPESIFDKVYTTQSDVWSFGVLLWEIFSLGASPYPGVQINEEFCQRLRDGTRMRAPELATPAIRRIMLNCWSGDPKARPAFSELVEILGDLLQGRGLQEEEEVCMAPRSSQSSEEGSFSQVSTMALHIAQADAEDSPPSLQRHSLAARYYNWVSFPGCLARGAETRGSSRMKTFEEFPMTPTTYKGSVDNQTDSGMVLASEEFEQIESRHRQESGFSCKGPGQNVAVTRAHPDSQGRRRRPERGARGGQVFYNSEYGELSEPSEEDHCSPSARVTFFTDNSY

Mitochondrial membrane [24] = assay: Induction of mitochondrial membrane potential loss in human MCF7 cells assessed as reduction in JC-1 aggregates by measuring decrease in red fluorescence at 1 uM by flow cytometry analysis (reference value: 24.7%); type: cell membranes; design: scale not given: the % may be the effect or the level left
MCF7 [25] = assay: Induction of apoptosis in human MCF7 cells assessed as late apoptotic cells at 1 uM incubated for 48 hrs in presence of 3-methyladenine by Annexin V/FITC and PI staining based flow cytometry analysis (reference value: 6.21%); type: functional
[26] = Cmax in Sprague-Dawley rat at 1 mg/kg, iv by LC-MS/MS analysis; type: ADME, organism-based; settings: in vivo
MCF7 [27] = assay: Upregulation of caspase3 protein expression in human MCF-7 cells at 1 uM incubated for 6 hrs in presence of 3-methyladenine by Western blot analysis; type: functional, cell-based
MCF7 [28] = assay: Induction of apoptosis in human MCF7 cells assessed as early apoptotic cells at 1 uM incubated for 48 hrs by Annexin V/FITC and PI staining based flow cytometry analysis (reference value: 6.64%); type: functional
4T1 [29] = assay: Antitumor activity against mouse 4T1 cells implanted in female BALB/c mouse model assessed as increase in LC3B expression at 50 mg/kg, po in presence of chloroquine by immunohistochemical analysis; type: functional, organism-based
MCF7 [30] = assay: Downregulation of N-cadherin expression in human MCF7 cells at 0.5 to 2 uM; type: functional, cell-based; settings: dose 0.5-2 µM
MCF7 [31] = assay: Induction of autophagic flux in human MCF7 cells assessed as increase in LC3B-II expression at 1 uM incubated for 48 hrs in presence of chloroquine by Western blot analysis; type: functional, cell-based
[32] = Toxicity in female BALB/c mouse assessed as effect on kidney at 25 to 50 mg/kg, po qd measured after 18 days by H and E staining based analysis; type: organism-based; settings: in vivo, 432 h, dose 25-50 mg/kg, time 18 day
4T1 [33] = assay: Antitumor activity against mouse 4T1 cells implanted in female BALB/c mouse model assessed as reduction in c-Myc phosphorylation level at 50 mg/kg, po qd by immunohistochemical analysis; type: functional, organism-based
Mitochondrial membrane [34] = assay: Induction of mitochondrial membrane potential loss in human MCF7 cells assessed as increase in JC-1 monomers by measuring increase in green fluorescence at 0.5 uM by flow cytometry analysis (reference value: 38.0%); type: cell membranes
[35] = Toxicity in female BALB/c mouse assessed as effect on lung at 50 mg/kg, po qd measured after 18 days in presence of chloroquine by H and E staining based analysis; type: organism-based; settings: in vivo, 432 h, time 18 day

- inhibition [2]: 19%
- Activity (Mitochondrial membrane [7]): 17.2%
- IC50 [8]: 97.9 nM
- AUC(0-t) [14]: 3910 ng·h/mL
- Activity (Mitochondrial membrane [15]): 48.9%
- inhibition [20]: 19%
- inhibition [23]: 18%
- Activity (Mitochondrial membrane [24]): 9.86%
- Cmax [26]: 534 ng/mL
- Activity (Mitochondrial membrane [34]): 46.6%
SMILES: O=C(Nc1cc(C(F)(F)F)cc(C(F)(F)F)c1)N[C@@H](Cc1ccccc1)Cn1c[n+](Cc2ccc3ccccc3c2)c2ccccc21.[Br-]
- Activity [1]: Non-toxic
- Activity (4T1 [3]): Active
- Activity (MCF7 [4]): inactive
- Activity (MCF7 [5]): inactive
- Activity (4T1-Luc [6]): Active
- Activity (4T1-Luc [9]): Active
- Activity [10]: Non-toxic
- Activity (MCF7 [11]): Active
- Activity (MCF7 [12]): 4.92%
- Activity [13]: Non-toxic
- Activity (MCF7 [16]): Active
- Activity (MCF7 [17]): Active
- Activity (MCF7 [18]): Active
- Activity (MCF7 [19]): 26.9%
- Activity (4T1 [21]): Dose-dependent-effect
- Activity (MCF7 [22]): Active
- Activity (MCF7 [25]): 25.1%
- Activity (MCF7 [27]): Active
- Activity (MCF7 [28]): 4.58%
- Activity (4T1 [29]): Active
- Activity (MCF7 [30]): Active
- Activity (MCF7 [31]): Active
- Activity [32]: Non-toxic
- Activity (4T1 [33]): Active
- Activity [35]: Non-toxic
